Measured values published in patent US9783490B2, “Antimicrobial compounds, their synthesis and applications thereof” (The Secretary of State for Health, priority 2012, dated 2017).

Experiments:
E. coli (MTCC 443) = test: Minimum Inhibitory Concentration, micro-dilution broth; format: cell-based, Escherichia coli; settings: for Minimum Inhibitory Concentration E. coli: Drug sensitive bacteria
Procedure: (§1) Microorganisms and Culture Conditions: Bacterial strains, S. aureus (MTCC 737) and E. coli (MTCC 443) are purchased from MTCC (Chandigarh, India). MRSA (ATCC 33591), Pseudomonas aeruginosa (ATCC 4676), […]-lactamase producing and drug-resistant Klebsiella pneumonia (ATCC700603), Enterococcus faecium (ATCC 19634) and vancomycin resistant Enterococcus faecium (ATCC 51559) are obtained from ATCC (Rockville, Md., USA).
(§2) E. coli is cultured in Luria Bertani broth (10 g of tryptone, 5 g of yeast extract, and 10 g of NaCl in 1000 mL of sterile distilled water (pH −7) while S. aureus, Pseudomonas aeruginosa (ATCC 4676) and MRSA are grown in Yeast-dextrose broth (1 g of beef extract, 2 g of yeast extract, 5 g of peptone and 5 g of NaCl in 1000 mL of sterile distilled water). For all Enterococcus faecium, Brain Heart Infusion broth (BHI) is used. For solid media 5% agar was used along with above mentioned composition. K. pneumonia was grown in nutrient media (3 g of beef extract and 5 g of peptone in 1000 mL of sterile distilled water). The bacterial samples were freeze dried and stored at −80° C. 5 μl of these stocks were added to 3 mL of the nutrient broth and the culture was grown for 6 h at 37° C. prior to the experiments.
(§3) Antibacterial activity is reported as Minimum Inhibitory Concentration (MIC), i.e. the lowest concentration of the antimicrobial agent that will inhibit the growth of a microorganism after overnight incubation. Water-soluble ACK, NCK and BCK series of compounds are assayed in a modified micro-dilution broth format. Stock solutions are made by serially diluting the compounds using autoclaved Millipore water. Bacteria, to be tested are grown for about 6 hrs in the suitable media containing ˜10^9 cfu/mL (determined through dilution plate technique by spread plate method), which is then diluted to 10^5 cfu/mL using nutrient media. 50 μL of serially diluted compound is added to a 96 well plate containing 150 μL bacterial solutions. Two controls are made; one containing 150 μL of media and 50 μL of compound and the other containing 200 μL of bacterial solution. […] MIC value is determined by taking the average of triplicate O.D. values for each concentration and plotting it against concentration using Origin Pro 8.0 software. The data is then subjected to sigmoidal fitting. From the curve, MIC value is determined, as the point in the curve where the O.D. is similar to that of control having no bacteria. The MIC values and errors of independent experiments are reported as average and standard deviation of triplicates.

[1] = tested on: vancomycin resistant Enterococcus faecium (ATCC 51559); test: as above; format: cell-based; settings: for Minimum Inhibitory Concentration VRE: Drug resistant bacteria
Procedure: as §1, §2, §3

[2] = tested on: Pseudomonas aeruginosa (ATCC 4676); test: as above; format: cell-based; settings: for Minimum Inhibitory Concentration P. aeruginosa: Drug sensitive bacteria
Procedure: as §1, §2, §3

[3] = tested on: Enterococcus faecium (ATCC 19634); test: as above; format: cell-based; settings: for Minimum Inhibitory Concentration E. faecium: Drug sensitive bacteria
Procedure: as §1, §2, §3

[4] = tested on: drug-resistant Klebsiella pneumonia (ATCC700603); test: as above; format: cell-based; settings: for Minimum Inhibitory Concentration K. pneumonia: Drug resistant bacteria
Procedure: as §1, §2, §3

S. aureus (MTCC 737) = test: as above; format: cell-based, Staphylococcus aureus; settings: for Minimum Inhibitory Concentration S. aureus: Drug sensitive bacteria
Procedure: as §1, §2, §3

human RBCs = test: Haemolytic activity (HC50); format: cell-based; settings: concentration at which 50% of the blood cells are lysed; human RBCs
Procedure: Erythrocytes are isolated from freshly drawn, heparinized human blood and re-suspended to 5 vol % in PBS (pH 7.4). In a 96-well microtiter plate, 150 μl of erythrocyte suspension is added to 50 μl of serially diluted compound. Two controls are made, one without compound and other with 50 μl of 1 vol % solution of Triton X-100. The plate is incubated for about 1 hr at a temperature of about 37° C. The plate is then centrifuged at 3,500 rpm for about 5 min, 100 μl of the supernatant from each well is transferred to a fresh microtiter plate, and absorbance at 540 nm is measured. Percentage of hemolysis is determined as (A−A0)/(Atotal−A0)×100, where A is the absorbance of the test well, A0 the absorbance of the negative controls (without compound), and A total the absorbance of 100% hemolysis wells (with Triton X-100), when absorbance is read at 540 nm.
Toxicity studies of the compounds are carried out on freshly drawn human RBCs. Toxicity of the antimicrobial compounds of the present disclosure is defined by their HC50 values illustrated in Table 3, i.e. the concentration of compound at which 50% of the blood cells are lysed. Haemolytic studies conducted herein illustrates that the antimicrobial compounds provided by the instant disclosure are selective towards drug sensitive bacteria and drug resistant bacteria over human RBCs, thus establishing the non-toxicity of the present compounds.

MRSA (ATCC 33591) = test: Minimum Inhibitory Concentration, micro-dilution broth; format: cell-based, Methicillin resistant S. aureus; settings: for Minimum Inhibitory Concentration MRSA: Drug resistant bacteria
Procedure: as §1, §2, §3

| Structure (SMILES) | MIC value against E. coli (E. coli (MTCC 443)) | Minimum Inhibitory Concentration E. coli (E. coli (MTCC 443)) [µg/mL] | MIC value against vancomycin-resistant E. faecium [1] | Minimum Inhibitory Concentration VRE [1] [µg/mL] | MIC value against P. aeruginosa [2] | Minimum Inhibitory Concentration P. aeruginosa [2] [µg/mL] | MIC value against E. faecium [3] | Minimum Inhibitory Concentration E. faecium [3] [µg/mL] | MIC value against K. pneumonia [4] | Minimum Inhibitory Concentration K. pneumonia [4] [µg/mL] | MIC value against S. aureus (S. aureus (MTCC 737)) | Minimum Inhibitory Concentration S. aureus (S. aureus (MTCC 737)) [µg/mL] | HC50 (human RBCs) [µg/mL] | MIC value against methicillin-resistant S. aureus (MRSA (ATCC 33591)) | Minimum Inhibitory Concentration MRSA (MRSA (ATCC 33591)) [µg/mL] |
| --- | --- | --- | --- | --- | --- | --- | --- | --- | --- | --- | --- | --- | --- | --- | --- |
| CCCCCCN(Cc1c2ccccc2c(Cl)c2ccccc12)C(=O)C(N)CCCCN.O=C(O)C(F)(F)F (centres unmarked) [ACK-6, Lys-N-hexyl-10-Aminomethyl-9-chloroanthracene trifluoroacetate] | ~3.5 µg/mL | 3.5 | ~5.2 µg/mL | 5.2 | ~1.6 µg/mL | 1.6 | ~3.3 µg/mL | 3.3 | ~16 µg/mL | 16 | ~2.4 µg/mL | 2.4 | 82 | ~2.8 µg/mL | 2.8 |
| CCCCCCCCN(Cc1c2ccccc2c(Cl)c2ccccc12)C(=O)[C@@H](N)CCCCN.O=C(O)C(F)(F)F [ACK-8, Lys-N-octyl-10-Aminomethyl-9-chloroanthracene trifluoroacetate] | ~2.9 µg/mL | 2.9 | ~3 µg/mL | 3 | ~3.8 µg/mL | 3.8 | ~2.5 µg/mL | 2.5 | ~4.3 µg/mL | 4.3 | ~2.2 µg/mL | 2.2 | 64 | ~2.3 µg/mL | 2.3 |
| CCCCCCCCCCN(Cc1c2ccccc2c(Cl)c2ccccc12)C(=O)[C@@H](N)CCCCN.O=C(O)C(F)(F)F [ACK-10, Lys-N-decyl-10-Aminomethyl-9-chloroanthracene trifluoroacetate] |  | 26 | ~5.6 µg/mL | 5.6 |  | 11 | ~4.9 µg/mL | 4.9 | ~7.6 µg/mL | 7.6 | ~7.1 µg/mL | 7.1 | 71 | ~4.6 µg/mL | 4.6 |
| CCCCCCCCN(Cc1ccccc1)C(=O)C(N)CCCCN.O=C(O)C(F)(F)F (centres unmarked) [BCK-8, Lys-N-octyl-1-Aminomethylbenzene trifluoroacetates] |  | 51 |  | >100 |  | 60 |  | 60 |  | >100 |  | 46 | 325 |  | >100 |
| CCCCCCCCCCN(Cc1ccccc1)C(=O)[C@@H](N)CCCCN.O=C(O)C(F)(F)F [BCK-10, Lys-N-decyl-1-Aminomethylbenzene trifluoroacetates] | about 6.5 μg/ml | 6.5 | about 5.8 μg/ml | 5.8 | about 4 μg/ml | 4 | about 6.5 μg/ml | 6.5 | about 31 μg/ml | 31 | about 5.7 μg/ml | 5.7 | 95 | about 15.7 μg/ml | 15.7 |
| CCCCCCCCCCCCN(Cc1ccccc1)C(=O)C(N)CCCCN.O=C(O)C(F)(F)F (centres unmarked) [BCK-12, Lys-N-dodecyl-1-Aminomethylbenzene trifluoroacetates] | ~5 µg/mL | 5 | ~3.3 µg/mL | 3.3 | about 4 μg/ml | 4 | ~2.6 µg/mL | 2.6 | ~2.8 µg/mL | 2.8 | ~2.7 µg/mL | 2.7 | 45 | ~2.9 µg/mL | 2.9 |
| CCCCCCCCCCCCCCN(Cc1ccccc1)C(=O)C(N)CCCCN.O=C(O)C(F)(F)F (centres unmarked) [BCK-14, Lys-N-tetradecyl-1-Aminomethylbenzene trifluoroacetates] | ~3.1 µg/mL | 3.1 | ~2.5 µg/mL | 2.5 | ~2.8 µg/mL | 2.8 | ~2 µg/mL | 2 | ~4 µg/mL | 4 | ~3.1 µg/mL | 3.1 | 50 | ~2.5 µg/mL | 2.5 |
| CCCCN(Cc1cccc2ccccc12)C(=O)C(N)CCCCN.O=C(O)C(F)(F)F (centres unmarked) [NCK-4, Lys-N-butyl-1-Aminomethylnaphthalene trifluoroacetate] |  | >100 |  | >100 |  | >100 |  | >100 |  | >100 |  | >100 | >1000 |  | >100 |
| CCCCCCN(Cc1cccc2ccccc12)C(=O)[C@@H](N)CCCCN.O=C(O)C(F)(F)F [NCK-6, Lys-N-hexyl-1-Aminomethylnaphthalene trifluoroacetate] |  | 25 |  | 54 | about 11 μg/ml | 11 |  | 34 |  | 100 |  | 20 | 508 |  | 65 |
